Read-outs that look alike come from different tables or passages of the source.
Legend:
Assay type in all cases: cell-based
ATM kinase = biological target: T1, ATM kinase (Homo sapiens, UniProt Q13315); assay: Assay a): ATM cellular potency (pATM Ser1981 in irradiated HT29 cells)
T1 construct: endogenous in cells; host or cells: HT29 cells (ECACC #85061109)
Method: Most ATM molecules in the cell are rapidly phosphorylated on this site after doses of radiation as low as 0.5 Gy, and binding of a phosphospecific antibody is detectable after the introduction of only a few DNA double-strand breaks in the cell.
The rationale of the p ATM assay is to identify inhibitors of ATM in cells. HT29 cells are incubated with test compounds for 1 hr prior to X-ray-irradiation. 1 h later the cells are fixed and stained for p ATM (Ser1981). The fluorescence is read on the arrayscan imaging platform.
The following morning compounds of Formula (I) in 100% DMSO were added to assay plates by acoustic dispensing. After 1 h incubation at 37° C. and 5% CO2, plates (up to 6 at a time) were irradiated using the X-RAD 320 instrument (PXi) with equivalent to ˜600cGy. Plates were returned to the incubator for a further 1 h. […] Then 20 μl of 0.1% Triton X100 in PBS was added and incubated for 20 minutes at r.t., to permeabalise cells. Then the plates were washed once with […] PBS, using a Biotek EL405 plate washer.
After 1 h incubation at r.t., the plates were washed three times with 50 μl/well PBS, using a Biotek EL405 plate washer, and plates were sealed and kept in PBS at 4° C. until read. Plates were read using an ArrayScan VTI instrument, using an XF53 filter with 10× objective.

ATR kinase = biological target: T2, ATR kinase (Homo sapiens, UniProt Q13535); assay: Assay b): ATR cellular potency (pChk1 Ser345 in HT29 cells after 4NQO)
T2 construct: endogenous in cells; host or cells: HT29 cells (ECACC #85061109)
Method: ATR is a PI 3-kinase-related kinase which phosphorylates multiple substrates on serine or threonine residues in response to DNA damage during or replication blocks. Chk1, a downstream protein kinase of ATR, plays a key role in DNA damage checkpoint control. Activation of Chk1 involves phosphorylation of Ser317 and Ser345 (the latter regarded as the preferential target for phosphorylation/activation by ATR).
The following morning compound of Formula (I) in 100% DMSO were added to assay plates by acoustic dispensing. After 1 h incubation at 37° C. and 5% CO2, 40 nl of 3 mM 4NQO in 100% DMSO was added to all wells by acoustic dispensing, except minimum control wells which were left untreated with 4NQO to generate a null response control. Plates were returned to the incubator for a further 1 h. […] Then 20 μl of 0.1% Triton X100 in PBS was added and incubated for 10 minutes at r.t., to permeabalise cells. Then the plates were washed once with 50 μl/well PBS, using a Biotek EL405 plate washer.
After 2 h incubation at r.t., the plates were washed three times with 50 μl/well PBS, using a Biotek EL405 plate washer, and plates were then sealed with black plate seals until read. Plates were read using an ArrayScan VTI instrument, using an XF53 filter with 10× objective.

mTOR = biological target: T3, mTOR (Homo sapiens, UniProt P42345); assay: Assay d): mTOR cellular potency (phospho-AKT Ser473 in MDA-MB-468 cells)
T3 construct: phosphorylation of the Akt protein at Ser473 (AKT lies downstream of PI3Kα in the signal transduction pathway) in the MDA-MB-468 cells; endogenous in cells; host or cells: MDA-MB-468 cells (ATCC HTB 132)
Method: This assay was used to measure mTOR inhibition in cells. The aim of the phospho-AKT cell based mechanism of action assay using the Acumen Explorer is to identify inhibitors of either PI3Kα or mTOR-Rictor (Rapamycin insensitive companion of mTOR). This is measured by any decrease in the phosphorylation of the Akt protein at Ser473 (AKT lies downstream of PI3Kα in the signal transduction pathway) in the MDA-MB-468 cells following treatment with compound.
MDA-MB-468 cells (human breast adenocarcinoma #ATCC HTB 132) were seeded at 1500 cells/well in 40 μl of DMEM containing 10% FBS and 1% glutamine into Greiner 384 well black flat-bottomed plates. Cell plates were incubated for 18 h in a 37° C. incubator before dosing with compounds of Formula (I) in 100% DMSO using acoustic dispensing. Compounds were dosed in a 12 point concentration range into a randomised plate map. Control wells were generated either by dosing of 100% DMSO (max signal) or addition of a reference compound (a PI3K-βinhibitor) that completely eliminated the pAKT signal (min control). Plates were incubated at 37° C. for 2 h; cells were then fixed by the addition of 10 μl of a 3.7% formaldehyde solution. After 30 minutes the plates were washed with PBS using a Tecan PW384 plate washer. Wells were blocked and cells permeabilised with the addition of 40 μl of PBS containing 0.5% Tween20 and 1% Marvel™ (dried milk powder) and incubated for 60 minutes at r.t. The plates were washed with PBS containing 0.5% (v/v) Tween20 and 20 μl rabbit anti-phospho AKT Ser473 (Cell Signalling Technologies, #3787) in same PBS-Tween+1% Marvel™ was added and incubated overnight at 4° C.
Plates were washed 3 times with PBS+0.05% Tween 20 using a Tecan PW384. 20 μl of secondary antibody Alexa Fluor 488 anti-Rabbit (Molecular Probes, #A11008) diluted in PBS+0.05% Tween20 containing 1% Marvel™ was added to each well and incubated for 1 h at r.t. Plates were washed three times as before then 20 μl PBS added to each well and plates sealed with a black plate sealer.
The plates were read on an Acumen plate reader as soon as possible, measuring green fluorescence after excitation with 488 nm laser. Using this system IC50 values were generated and quality of plates was determined by control wells. Reference compounds were run each time to monitor assay performance.

[1] = HT29 cells, X-ray irradiation, pATM Ser1981; Table 2; read-out: Assay a) ATM Cell IC50
[2] = HT29 cells, 4NQO, pChk1 Ser345; Table 2; read-out: Assay b) ATR Cell IC50
[3] = MDA-MB-468 cells, phospho-AKT Ser473, 2 h; Table 2; read-out: Assay d) mTOR Cell IC50
[4] = HT29 cells, X-ray irradiation, pATM Ser1981; Table 3 comparative data; read-out: Assay a) ATM Cell IC50
[5] = HT29 cells, 4NQO, pChk1 Ser345; Table 3 comparative data; read-out: Assay b) ATR Cell IC50
[6] = MDA-MB-468 cells, phospho-AKT Ser473, 2 h; Table 3 comparative data; read-out: Assay d) mTOR Cell IC50

T1 sequence (Q13315 whole entry): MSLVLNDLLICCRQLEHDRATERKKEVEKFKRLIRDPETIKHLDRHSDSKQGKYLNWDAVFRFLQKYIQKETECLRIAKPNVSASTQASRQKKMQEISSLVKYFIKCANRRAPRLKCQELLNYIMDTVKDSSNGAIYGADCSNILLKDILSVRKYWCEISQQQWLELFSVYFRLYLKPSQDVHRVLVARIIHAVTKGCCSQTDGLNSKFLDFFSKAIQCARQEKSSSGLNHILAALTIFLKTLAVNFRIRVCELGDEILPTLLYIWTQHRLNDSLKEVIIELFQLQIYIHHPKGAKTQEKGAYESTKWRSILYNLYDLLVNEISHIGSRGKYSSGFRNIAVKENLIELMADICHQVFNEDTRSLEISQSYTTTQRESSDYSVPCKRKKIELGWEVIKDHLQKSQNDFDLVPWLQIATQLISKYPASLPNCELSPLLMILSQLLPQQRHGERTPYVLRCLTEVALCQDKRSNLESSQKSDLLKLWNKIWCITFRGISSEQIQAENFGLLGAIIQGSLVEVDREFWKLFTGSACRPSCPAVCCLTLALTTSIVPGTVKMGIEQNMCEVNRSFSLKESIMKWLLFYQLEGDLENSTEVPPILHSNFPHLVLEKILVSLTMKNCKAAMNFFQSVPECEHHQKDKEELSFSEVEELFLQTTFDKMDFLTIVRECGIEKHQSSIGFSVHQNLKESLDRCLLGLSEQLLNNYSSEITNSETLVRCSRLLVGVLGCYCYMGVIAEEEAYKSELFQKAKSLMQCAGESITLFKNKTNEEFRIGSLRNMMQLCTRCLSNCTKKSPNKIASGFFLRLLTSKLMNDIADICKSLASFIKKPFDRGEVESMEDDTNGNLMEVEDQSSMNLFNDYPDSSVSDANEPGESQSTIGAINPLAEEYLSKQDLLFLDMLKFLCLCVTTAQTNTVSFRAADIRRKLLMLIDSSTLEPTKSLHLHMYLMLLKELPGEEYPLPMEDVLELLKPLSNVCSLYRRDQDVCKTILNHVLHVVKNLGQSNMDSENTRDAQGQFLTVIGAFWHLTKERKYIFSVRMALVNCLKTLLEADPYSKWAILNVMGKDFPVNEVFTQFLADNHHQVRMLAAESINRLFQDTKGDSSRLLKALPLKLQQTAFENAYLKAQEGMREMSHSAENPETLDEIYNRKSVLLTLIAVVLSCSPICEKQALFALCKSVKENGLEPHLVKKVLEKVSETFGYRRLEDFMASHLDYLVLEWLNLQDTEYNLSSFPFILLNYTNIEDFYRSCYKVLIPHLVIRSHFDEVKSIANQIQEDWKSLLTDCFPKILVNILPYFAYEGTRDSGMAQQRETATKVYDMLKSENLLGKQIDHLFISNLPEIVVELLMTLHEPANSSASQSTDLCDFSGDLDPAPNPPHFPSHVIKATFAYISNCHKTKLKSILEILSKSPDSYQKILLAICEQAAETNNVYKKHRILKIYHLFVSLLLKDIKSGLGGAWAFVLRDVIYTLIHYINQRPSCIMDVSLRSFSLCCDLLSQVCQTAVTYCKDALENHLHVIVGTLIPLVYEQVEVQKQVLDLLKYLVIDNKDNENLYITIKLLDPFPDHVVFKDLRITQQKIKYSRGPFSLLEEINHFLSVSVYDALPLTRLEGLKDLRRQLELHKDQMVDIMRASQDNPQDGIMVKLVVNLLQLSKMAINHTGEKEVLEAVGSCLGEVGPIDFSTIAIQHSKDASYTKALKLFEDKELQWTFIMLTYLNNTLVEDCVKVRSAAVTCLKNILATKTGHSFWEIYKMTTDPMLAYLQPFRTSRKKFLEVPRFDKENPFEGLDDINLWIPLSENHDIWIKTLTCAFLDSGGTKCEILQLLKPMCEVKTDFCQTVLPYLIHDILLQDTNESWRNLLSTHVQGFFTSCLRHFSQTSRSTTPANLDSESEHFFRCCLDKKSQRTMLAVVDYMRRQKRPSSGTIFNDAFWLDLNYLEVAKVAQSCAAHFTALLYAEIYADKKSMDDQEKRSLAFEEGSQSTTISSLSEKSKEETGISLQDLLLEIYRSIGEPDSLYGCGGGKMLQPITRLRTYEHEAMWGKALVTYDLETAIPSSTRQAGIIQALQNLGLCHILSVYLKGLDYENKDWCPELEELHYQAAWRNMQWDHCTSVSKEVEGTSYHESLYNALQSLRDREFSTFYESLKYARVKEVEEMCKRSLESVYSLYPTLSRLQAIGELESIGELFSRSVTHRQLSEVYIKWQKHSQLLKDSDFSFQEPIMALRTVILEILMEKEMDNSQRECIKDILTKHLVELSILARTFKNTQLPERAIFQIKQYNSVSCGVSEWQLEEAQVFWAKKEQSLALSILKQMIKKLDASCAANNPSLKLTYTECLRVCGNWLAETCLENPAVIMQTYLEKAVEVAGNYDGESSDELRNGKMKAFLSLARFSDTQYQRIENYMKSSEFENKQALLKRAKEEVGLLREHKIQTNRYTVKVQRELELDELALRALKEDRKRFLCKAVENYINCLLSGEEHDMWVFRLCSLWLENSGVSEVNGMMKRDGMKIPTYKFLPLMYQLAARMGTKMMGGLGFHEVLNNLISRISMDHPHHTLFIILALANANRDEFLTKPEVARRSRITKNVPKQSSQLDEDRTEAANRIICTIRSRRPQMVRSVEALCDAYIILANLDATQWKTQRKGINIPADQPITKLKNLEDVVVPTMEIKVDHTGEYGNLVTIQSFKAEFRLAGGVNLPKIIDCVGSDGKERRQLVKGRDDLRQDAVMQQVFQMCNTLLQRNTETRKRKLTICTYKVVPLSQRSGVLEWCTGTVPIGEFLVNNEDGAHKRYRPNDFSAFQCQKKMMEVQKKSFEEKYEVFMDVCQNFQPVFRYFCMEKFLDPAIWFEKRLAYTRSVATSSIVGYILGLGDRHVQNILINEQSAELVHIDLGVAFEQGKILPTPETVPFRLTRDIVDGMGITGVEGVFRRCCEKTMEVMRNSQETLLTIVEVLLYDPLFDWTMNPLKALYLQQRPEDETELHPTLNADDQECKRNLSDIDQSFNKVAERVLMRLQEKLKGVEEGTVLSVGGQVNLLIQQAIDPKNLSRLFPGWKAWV

## CO[C@@H]1CCC[C@H](n2c(=O)n(C)c3cnc4ccc(-c5ccc(OCCCN(C)C)cc5)cc4c32)C1 (relative stereo) [Example 33, 8-[4-[3-(dimethylamino)propoxy]phenyl]-1-[cis-3-methoxycyclohexyl]-3-methyl-imidazo[4,5-c]quinolin-2-one]
ATM kinase; [1]
  IC50: 2.3 nM
ATR kinase; [2]
  IC50: 28000 nM
mTOR; [3]
  IC50: 1230 nM

## CO[C@@H]1CCC[C@H](n2c(=O)n(C)c3cnc4ccc(-c5ccc(OCCCN6CCCC6)cc5)cc4c32)C1 (relative stereo) [Example 39, 1-[cis-3-methoxycyclohexyl]-3-methyl-8-[4-(3-pyrrolidin-1-ylpropoxy)phenyl]imidazo[4,5-c]quinolin-2-one]
mTOR; [3]
  IC50: 899 nM

## CO[C@H]1CC[C@H](n2c(=O)n(C)c3cnc4ccc(-c5ccc(OCCCN6CCCC6)cc5)cc4c32)C1 (single isomer, unassigned) [Example 19, 1-[trans-3-methoxycyclopentyl]-3-methyl-8-[4-(3-pyrrolidin-1-ylpropoxy)phenyl]imidazo[4,5-c]quinolin-2-one]
ATM kinase; [1]
  IC50: 0.29 nM
ATR kinase; [2]
  IC50: 18000 nM
mTOR; [3]
  IC50: 634 nM

## CO[C@@H]1CC[C@@H](n2c(=O)n(C)c3cnc4ccc(-c5ccc(OCCCN6CCCC6)cc5)cc4c32)C1 (single isomer, unassigned) [Example 20, 1-[trans-3-methoxycyclopentyl]-3-methyl-8-[4-(3-pyrrolidin-1-ylpropoxy)phenyl]imidazo[4,5-c]quinolin-2-one]
ATM kinase; [1]
  IC50: 0.452 nM
ATR kinase; [2]
  IC50: 21300 nM
mTOR; [3]
  IC50: 5500 nM

## CO[C@H]1CC[C@H](n2c(=O)n(C)c3cnc4cc(F)c(-c5ccc(OCCCN6CCC6)cc5)cc4c32)C1 (single isomer, unassigned) [Example 23, 8-[4-[3-(azetidin-1-yl)propoxy]phenyl]-7-fluoro-1-[trans-3-methoxycyclopentyl]-3-methyl-imidazo[4,5-c]quinolin-2-one]
ATM kinase; [1]
  IC50: 1.42 nM
ATR kinase; [2]
  IC50: > 30000 nM
mTOR; [3]
  IC50: 5680 nM

## CO[C@@H]1CC[C@@H](n2c(=O)n(C)c3cnc4cc(F)c(-c5ccc(OCCCN6CCC6)cc5)cc4c32)C1 (single isomer, unassigned) [Example 24, 8-[4-[3-(azetidin-1-yl)propoxy]phenyl]-7-fluoro-1-[trans-3-methoxycyclopentyl]-3-methyl-imidazo[4,5-c]quinolin-2-one]
ATM kinase; [1]
  IC50: 0.917 nM
ATR kinase; [2]
  IC50: > 24600 nM
mTOR; [3]
  IC50: 5910 nM

## CO[C@H]1CCC[C@H](n2c(=O)n(C)c3cnc4ccc(-c5ccc(OCCCN6CCCC6)cc5)cc4c32)C1 (single isomer, unassigned) [Example 30, 1-[trans-3-methoxycyclohexyl]-3-methyl-8-[4-(3-pyrrolidin-1-ylpropoxy)phenyl]imidazo[4,5-c]quinolin-2-one]
ATM kinase; [1]
  IC50: 1.62 nM
ATR kinase; [2]
  IC50: 15500 nM
mTOR; [3]
  IC50: 1700 nM

## CO[C@@H]1CC[C@H](n2c(=O)n(C)c3cnc4ccc(-c5ccc(OCCCN(C)C)cc5)cc4c32)C1 (single isomer, unassigned) [Example 34, 8-[4-[3-(dimethylamino)propoxy]phenyl]-1-[cis-3-methoxycyclopentyl]-3-methyl-imidazo[4,5-c]quinolin-2-one]
mTOR; [3]
  IC50: 4660 nM

## CO[C@@H]1CC[C@H](n2c(=O)n(C)c3cnc4cc(F)c(-c5ccc(OCCCN(C)C)cc5)cc4c32)C1 (single isomer, unassigned) [Example 37, 8-[4-[3-(dimethylamino)propoxy]phenyl]-7-fluoro-1-[cis-3-methoxycyclopentyl]-3-methyl-imidazo[4,5-c]quinolin-2-one]
ATM kinase; [1]
  IC50: 2.95 nM
ATR kinase; [2]
  IC50: > 30000 nM
mTOR; [3]
  IC50: 4110 nM

## COC(=O)N1CCC(n2c(=O)n(C)c3cnc4ccc(-c5ccc(OC)nc5)cc4c32)CC1 [CN102372711A Compound 4, reference compound]
ATM kinase; [4]
  IC50: 11.2 nM
ATR kinase; [5]
  IC50: 68.6 nM
mTOR; [6]
  IC50: 72.9 nM

## Cn1c(=O)n(C2CCOCC2)c2c3cc(-c4cnn(CCCO)c4)ccc3ncc21 [CN102399218A Compound 60, reference compound]
ATM kinase; [4]
  IC50: 1760 nM
ATR kinase; [5]
  IC50: > 77.1 nM
mTOR; [6]
  IC50: 2310 nM

## CC(C)n1c(=O)n(C)c2cnc3cc(F)c(-c4ccc(OCCCN5CCC5)cc4)cc3c21 [Example 4, 8-[4-[3-(azetidin-1-yl)propoxy]phenyl]-7-fluoro-1-isopropyl-3-methyl-imidazo[4,5-c]quinolin-2-one]
ATM kinase; [1]
  IC50: 6.64 nM
ATR kinase; [2]
  IC50: > 30000 nM
mTOR; [3]
  IC50: 9120 nM

## CO[C@H]1CC[C@H](n2c(=O)n(C)c3cnc4ccc(-c5ccc(OCCCN(C)C)cc5)cc4c32)C1 [Example 6, 8-[4-[3-(Dimethylamino)propoxy]phenyl]-1-[(1S,3S)-3-methoxycyclopentyl]-3-methyl-imidazo[4,5-c]quinolin-2-one]
mTOR; [3]
  IC50: 781 nM

## CO[C@H]1C[C@@H](n2c(=O)n(C)c3cnc4ccc(-c5ccc(OCCCN(C)C)cc5)cc4c32)C1 [Example 11, 8-[4-[3-(dimethylamino)propoxy]phenyl]-1-(cis-3-methoxycyclobutyl)-3-methyl-imidazo[4,5-c]quinolin-2-one]
ATM kinase; [1]
  IC50: 0.647 nM
ATR kinase; [2]
  IC50: > 30000 nM
mTOR; [3]
  IC50: 6360 nM

## Cn1c(=O)n([C@H]2CCCOC2)c2c3cc(-c4ccc(OCCCN5CCCC5)cc4)ccc3ncc21 [Example 15, 3-methyl-8-[4-(3-pyrrolidin-1-ylpropoxy)phenyl]-1-[(3S)-tetrahydropyran-3-yl]imidazo[4,5-c]quinolin-2-one]
ATM kinase; [1]
  IC50: 0.911 nM
ATR kinase; [2]
  IC50: 21600 nM
mTOR; [3]
  IC50: 2580 nM

## Cn1c(=O)n(C2CCOCC2)c2c3cc(-c4ccc(OCCCN5CCCCC5)cc4)ccc3ncc21 [Example 18, 3-methyl-8-[4-[3-(1-piperidyl)propoxy]phenyl]-1-tetrahydropyran-4-yl-imidazo[4,5-c]quinolin-2-one]
ATR kinase; [2]
  IC50: > 17800 nM
mTOR; [3]
  IC50: 2650 nM

## CO[C@H]1C[C@H](n2c(=O)n(C)c3cnc4ccc(-c5ccc(OCCCN(C)C)cc5)cc4c32)C1 [Example 21, 8-[4-[3-(dimethylamino)propoxy]phenyl]-1-(trans-3-methoxycyclobutyl)-3-methyl-imidazo[4,5-c]quinolin-2-one]
ATM kinase; [1]
  IC50: 0.533 nM
ATR kinase; [2]
  IC50: > 30000 nM
mTOR; [3]
  IC50: 5070 nM
